Values joined by “and” are separate entries in the source; they are usually repeats but may differ in a detail not shown here. Equal values may be shown once.
System: OVCAR-8 complex spheroid, growth inhibition
Experiment: Anticancer human tumor OVCAR-8 cell line growth inhibition [Asc];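 further: spheroids exposed to agents for 7 days before readout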;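 on viability, T/C: percent viability relative to DMSO vehicle wells taken as 100%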
Settings: for viability, T/C: stronger effect = lower value
In short: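 Tumor cells were grown as complex spheroids with human endothelial cells (HUVEC) and human mesenchymal stem cells as stroma. Agents were tested alone and in combination, in half-log steps down from the clinical Cmax, or from 10 microM where Cmax was unknown.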

## C#Cc1c(F)ccc2cc(O)cc(-c3ncc4c(N5CC6CCC(C5)N6)nc(OCC56CCCN5CC(F)C6)nc4c3F)c12 (centres undefined) + CNC(C)C(=O)NC1CN(S(=O)(=O)c2cccc(S(=O)(=O)N3CCC4CCC(C(=O)NC(c5ccccc5)c5ccccc5)N4C(=O)C(NC(=O)C(C)NC)C3)c2)CCC2CCC(C(=O)NC(c3ccccc3)c3ccccc3)N2C1=O
Curve of first compound, second compound 0.00316 µM
  IC50: > 10 µM
Curve of first compound, second compound 0.01 µM
  IC50: > 10 µM
Curve of first compound, second compound 0.0316 µM
  IC50: > 10 µM
Curve of first compound, second compound 0.1 µM
  IC50: > 10 µM
Curve of first compound, second compound 0.316 µM
  IC50: > 10 µM
Curve of first compound, second compound 1 µM
  IC50: > 10 µM
Second compound 0.00316 µM, first compound 0.0316 µM
  viability, T/C: 106%
Second compound 0.00316 µM, first compound 0.1 µM
  viability, T/C: 93.7%
Second compound 0.00316 µM, first compound 0.316 µM
  viability, T/C: 87.8%
Second compound 0.00316 µM, first compound 1 µM
  viability, T/C: 90.2%
Second compound 0.00316 µM, first compound 3.16 µM
  viability, T/C: 101%
Second compound 0.00316 µM, first compound 10 µM
  viability, T/C: 135%
Second compound 0.01 µM, first compound 0.0316 µM
  viability, T/C: 104%
Second compound 0.01 µM, first compound 0.1 µM
  viability, T/C: 89.9%
Second compound 0.01 µM, first compound 0.316 µM
  viability, T/C: 91%
Second compound 0.01 µM, first compound 1 µM
  viability, T/C: 103%
Second compound 0.01 µM, first compound 3.16 µM
  viability, T/C: 96.4%
Second compound 0.01 µM, first compound 10 µM
  viability, T/C: 112%
Second compound 0.0316 µM, first compound 0.0316 µM
  viability, T/C: 89%
Second compound 0.0316 µM, first compound 0.1 µM
  viability, T/C: 83.2%
Second compound 0.0316 µM, first compound 0.316 µM
  viability, T/C: 83%
Second compound 0.0316 µM, first compound 1 µM
  viability, T/C: 88.2%
Second compound 0.0316 µM, first compound 3.16 µM
  viability, T/C: 96.4%
Second compound 0.0316 µM, first compound 10 µM
  viability, T/C: 136%
Second compound 0.1 µM, first compound 0.0316 µM
  viability, T/C: 80.6%
Second compound 0.1 µM, first compound 0.1 µM
  viability, T/C: 95.4%
Second compound 0.1 µM, first compound 0.316 µM
  viability, T/C: 88.4%
Second compound 0.1 µM, first compound 1 µM
  viability, T/C: 82.7%
Second compound 0.1 µM, first compound 3.16 µM
  viability, T/C: 85.8%
Second compound 0.1 µM, first compound 10 µM
  viability, T/C: 98.2%
Second compound 0.316 µM, first compound 0.0316 µM
  viability, T/C: 74%
Second compound 0.316 µM, first compound 0.1 µM
  viability, T/C: 87.6%
Second compound 0.316 µM, first compound 0.316 µM
  viability, T/C: 80.2%
Second compound 0.316 µM, first compound 1 µM
  viability, T/C: 89.9%
Second compound 0.316 µM, first compound 3.16 µM
  viability, T/C: 77.1%
Second compound 0.316 µM, first compound 10 µM
  viability, T/C: 119%
Second compound 1 µM, first compound 0.0316 µM
  viability, T/C: 80.9%
Second compound 1 µM, first compound 0.1 µM
  viability, T/C: 86.1%
Second compound 1 µM, first compound 0.316 µM
  viability, T/C: 112%
Second compound 1 µM, first compound 1 µM
  viability, T/C: 91.6%
Second compound 1 µM, first compound 3.16 µM
  viability, T/C: 88.5%
Second compound 1 µM, first compound 10 µM
  viability, T/C: 109%

## CCN1C(C(=O)NC23CCC(C(=O)O)(CC2)CC3)C(c2cccc(Cl)c2F)C2(C(=O)Nc3cc(Cl)ccc32)C12CCCCC2 (centres undefined)
Compound 0.03 µM
  viability, T/C: 93.4% [middle of 9 runs]
Compound 0.949 µM
  viability, T/C: 100% [middle of 9 runs]
Compound 3 µM
  viability, T/C: 104% [middle of 9 runs]
Compound alone, run of 11/07/2022
  IC50: > 3 µM
Curve of compound
  IC50: > 3 µM

## C=CC(=O)N1CCN(c2nc(=O)n(-c3c(C)ccnc3C(C)C)c3nc(-c4c(O)cccc4F)c(F)cc23)C(C)C1 (centres undefined)
Compound 0.0316 µM
  viability, T/C: 106% and 97.9% and 94.2%
Compound 0.1 µM
  viability, T/C: 102% and 109% and 80.9%
Compound 0.316 µM
  viability, T/C: 84.7% and 95.3% and 101%
Compound 1 µM
  viability, T/C: 98.6% and 95.9% and 99.3%
Compound 3.16 µM
  viability, T/C: 86.1% and 102% and 101%
Compound 10 µM
  viability, T/C: 108% and 99.7% and 96.6%
Curve of compound
  IC50: > 10 µM

Reference: PubChem BioAssay AID1963437 (Molecular Pharmacology Branch, DTP, NCI, 2024)
